Test results: PubChem BioAssay AID248 (DTP/NCI, 2004)
Values joined by “and” are separate entries in the source; they are usually repeats but may differ in a detail not shown here. Identical values can stand only once. Toxic doses and inconclusive results are not listed. Cut-off read from the data, not from the text of the source: active = T/C of 150% or more; inactive = T/C below 125%.

System: L1210 leukemia ip in BDF1 mice, survival T/C
Experiment: NCI In Vivo Anticancer Drug Screen. Data for tumor model L1210 Leukemia (intraperitoneal) in B6D2F1 (BDF1) mice
Settings: endpoint: mean survival time, higher = longer survival
Procedure, shortened: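 In this screen, tumor-bearing mice given compound are compared to those given vehicle, and their survival values are reported as a treated-to-control quotient.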

[1] = dose: 100.0 mg/kg/injection, schedule: Q01DX001 (ip), vehicle: other
[2] = dose: 200.0 mg/kg/injection, schedule: Q01DX001 (ip), vehicle: other
[3] = dose: 400.0 mg/kg/injection, schedule: Q01DX001 (ip), vehicle: other
[4] = dose: 100.0 mg/kg/injection, schedule: Q01DX001 (ip), vehicle: carboxymethylcellulose (CMC)
[5] = dose: 200.0 mg/kg/injection, schedule: Q01DX001 (ip), vehicle: carboxymethylcellulose (CMC)
[6] = dose: 400.0 mg/kg/injection, schedule: Q01DX001 (ip), vehicle: carboxymethylcellulose (CMC)
[7] = dose: 100.0 mg/kg/injection, schedule: Q01DX001 (ip), vehicle: saline
[8] = dose: 200.0 mg/kg/injection, schedule: Q01DX001 (ip), vehicle: saline
[9] = dose: 400.0 mg/kg/injection, schedule: Q01DX001 (ip), vehicle: saline
[10] = dose: 100.0 mg/kg/injection, schedule: Q01DX009 (ip), vehicle: Klucel (hydroxypropylcellulose) (HPC)
[11] = dose: 100.0 mg/kg/injection, schedule: Q04DX003 (ip), vehicle: Klucel (hydroxypropylcellulose) (HPC)
[12] = dose: 200.0 mg/kg/injection, schedule: Q01DX009 (ip), vehicle: Klucel (hydroxypropylcellulose) (HPC)
[13] = dose: 200.0 mg/kg/injection, schedule: Q04DX003 (ip), vehicle: Klucel (hydroxypropylcellulose) (HPC)
[14] = dose: 400.0 mg/kg/injection, schedule: Q01DX009 (ip), vehicle: Klucel (hydroxypropylcellulose) (HPC)
[15] = dose: 400.0 mg/kg/injection, schedule: Q04DX003 (ip), vehicle: Klucel (hydroxypropylcellulose) (HPC)
[16] = dose: 100.0 mg/kg/injection, schedule: Q04DX003 (ip), vehicle: saline
[17] = dose: 200.0 mg/kg/injection, schedule: Q04DX003 (ip), vehicle: saline
[18] = dose: 400.0 mg/kg/injection, schedule: Q04DX003 (ip), vehicle: saline

Measured: T/C

NC(CCl)=NCCCN1CCOCC1
inactive: dose: 100.0 mg/kg/injection, schedule: Q04DX002 (ip), vehicle: saline 114 % of control | dose: 200.0 mg/kg/injection, schedule: Q04DX002 (ip), vehicle: saline 97 % of control

O=C(c1cccc([N+](=O)[O-])c1)c1ccc(O)cc1O
inactive: [1] 103 % of control | dose: 100.0 mg/kg/injection, schedule: Q04DX003 (ip), vehicle: other 103 % of control | [2] 95 % of control | dose: 200.0 mg/kg/injection, schedule: Q04DX003 (ip), vehicle: other 100 % of control | [3] 95 % of control | dose: 400.0 mg/kg/injection, schedule: Q04DX003 (ip), vehicle: other 100 % of control

COC(=O)/C(=C1\C=C(c2ccccc2)C(=O)O1)c1ccccc1
inactive: dose: 25.0 mg/kg/injection, schedule: Q01DX009 (ip), vehicle: Klucel (hydroxypropylcellulose) (HPC) 98 % of control | dose: 50.0 mg/kg/injection, schedule: Q01DX009 (ip), vehicle: Klucel (hydroxypropylcellulose) (HPC) 103 % of control

c1ccc2c(c1)-c1ccccc1-2
inactive: dose: 50.0 mg/kg/injection, schedule: Q01DX001 (ip), vehicle: carboxymethylcellulose (CMC) 97 % of control | [4] 97 % of control | [5] 97 % of control | [6] 103 % of control

CC(=O)OC1C(OS(=O)(=O)c2ccc(C)cc2)C(COC(=O)c2ccccc2)OC1n1cnc2c(NC(=O)c3ccccc3)ncnc21 (stereo not drawn)
inactive: dose: 100.0 mg/kg/injection, schedule: Q01DX005 (ip), vehicle: saline 97 % of control | dose: 200.0 mg/kg/injection, schedule: Q01DX005 (ip), vehicle: saline 90 % of control

BrC[Si](c1ccccc1)(c1ccccc1)c1ccccc1
inactive: dose: 100.0 mg/kg/injection, schedule: Q04DX002 (ip), vehicle: saline with Tween-80 96 % of control | dose: 200.0 mg/kg/injection, schedule: Q04DX002 (ip), vehicle: saline with Tween-80 96 % of control | dose: 400.0 mg/kg/injection, schedule: Q04DX002 (ip), vehicle: saline with Tween-80 92 % of control

COC1=C(NCCc2ccc(OC)c(OC)c2)C(=O)C(OC)=C(NCCc2ccc(OC)c(OC)c2)C1=O
inactive: [7] 109 % of control | [8] 98 % of control | [9] 96 % of control

CC(=O)N(Cc1cccc([N+](=O)[O-])c1)c1ccc(C(=O)O)cc1
inactive: dose: 100.0 mg/kg/injection, schedule: Q01DX001 (ip), vehicle: saline with Tween-80 98 % of control | dose: 200.0 mg/kg/injection, schedule: Q01DX001 (ip), vehicle: saline with Tween-80 119 % of control | dose: 400.0 mg/kg/injection, schedule: Q01DX001 (ip), vehicle: saline with Tween-80 93 % of control

CCOC(=O)CCCN(c1ccccc1CC(=O)OCC)S(C)(=O)=O
inactive: [10] 103 % of control | [11] 102 % of control | [12] 94 % of control | [13] 112 % of control | [14] 97 % of control | [15] 100 % of control

COc1cccc2cc(C3(c4ccccc4)OC(=O)c4ccccc43)ccc12 (stereo not drawn)
inactive: [1] 90 % of control | [2] 94 % of control | [3] 95 % of control

O=c1oc(-c2ccco2)nc2ccccc12
inactive: [10] 101 % of control | [11] 102 % of control | [12] 110 % of control | [13] 95 % of control | [15] 93 % of control

NC(CSS(=O)(=O)O)=NCC12CC3CC(CC(C3)C1)C2
inactive: dose: 12.5 mg/kg/injection, schedule: Q04DX002 (ip), vehicle: Klucel (hydroxypropylcellulose) (HPC) 104 % of control | dose: 25.0 mg/kg/injection, schedule: Q04DX002 (ip), vehicle: Klucel (hydroxypropylcellulose) (HPC) 95 % of control

O=C(CCN1CC1)N1CCOCC1
inactive: [16] 108 % of control | [17] 100 % of control | [18] 113 % of control

CCCCC1=NCCc2c1cc1c([nH]c3ccccc31)c2C
inactive: [16] 96 % of control | [17] 95 % of control

C(#[C][Sb]([C]#Cc1ccccc1)[C]#Cc1ccccc1)c1ccccc1
inactive: [16] 98 % of control | [17] 106 % of control | [18] 102 % of control

CCC1([N+](=O)[O-])COP(=O)(N2CC2)OC1 (stereo not drawn)
inactive: [4] 106 % of control | [5] 116 % of control

O=C(O)CC(=O)c1cccc([N+](=O)[O-])c1
inactive: dose: 100.0 mg/kg/injection, schedule: Q01DX001 (ip), vehicle: Klucel (hydroxypropylcellulose) (HPC) 104 % of control | dose: 200.0 mg/kg/injection, schedule: Q01DX001 (ip), vehicle: Klucel (hydroxypropylcellulose) (HPC) 97 % of control | dose: 400.0 mg/kg/injection, schedule: Q01DX001 (ip), vehicle: Klucel (hydroxypropylcellulose) (HPC) 96 % of control

CC(C)NC(=O)NS(=O)(=O)c1ccc(N)cc1
inactive: [16] 94 % of control | [17] 103 % of control | [18] 110 % of control

CC1(C)N=C(N)N=C(N)N1c1cccc(CO)c1
inactive: [7] 96 % of control | [8] 105 % of control

Nc1c(Br)cc2c(c1Br)C(=O)c1cc(Br)ccc1-2
inactive: [4] 92 % of control | [5] 94 % of control | [6] 97 % of control

CCCCCCCCC1SC1CCCCCCCCOC(=O)CCCCCCCC1SC1CCCCCCCC (stereo not drawn)
inactive: dose: 100.0 mg/kg/injection, schedule: Q01DX009 (ip), vehicle: saline with Tween-80 101 % of control | dose: 200.0 mg/kg/injection, schedule: Q01DX009 (ip), vehicle: saline with Tween-80 93 % of control | dose: 400.0 mg/kg/injection, schedule: Q01DX009 (ip), vehicle: saline with Tween-80 91 % of control

CC1C2c3ccccc3C(c3ccccc32)C1S(=O)(=O)F (stereo not drawn)
inactive: [10] 97 % of control | [12] 100 % of control | [14] 106 % of control

COC(=O)c1cc(Cl)ccc1OCC(=O)Nc1ccc([N+](=O)[O-])cc1
inactive: [10] 98 % of control | [11] 102 % of control | [12] 93 % of control | [13] 95 % of control | [14] 105 % of control | [15] 103 % of control

CCOC(=O)Cc1cc(=O)[nH][nH]c1=O
inactive: dose: 150.0 mg/kg/injection, schedule: Q04DX002 (ip), vehicle: Klucel (hydroxypropylcellulose) (HPC) 95 % of control | dose: 300.0 mg/kg/injection, schedule: Q04DX002 (ip), vehicle: Klucel (hydroxypropylcellulose) (HPC) 95 % of control

CCCCOC(=O)/C=C/C(=O)[O][Sn]([CH2]CCC)([CH2]CCC)[O]C(=O)/C=C/C(=O)OCCCC
inactive: dose: 12.5 mg/kg/injection, schedule: Q01DX009 (sc), vehicle: olive oil, sesame oil, peanut oil 98 % of control | dose: 25.0 mg/kg/injection, schedule: Q01DX009 (sc), vehicle: olive oil, sesame oil, peanut oil 108 % of control | dose: 25.0 mg/kg/injection, schedule: Q04DX002 (sc), vehicle: olive oil, sesame oil, peanut oil 97 % of control | dose: 50.0 mg/kg/injection, schedule: Q01DX009 (sc), vehicle: olive oil, sesame oil, peanut oil 95 % of control | dose: 50.0 mg/kg/injection, schedule: Q04DX002 (sc), vehicle: olive oil, sesame oil, peanut oil 94 % of control | dose: 100.0 mg/kg/injection, schedule: Q04DX002 (sc), vehicle: olive oil, sesame oil, peanut oil 96 % of control and 106 % of control | dose: 200.0 mg/kg/injection, schedule: Q04DX002 (sc), vehicle: olive oil, sesame oil, peanut oil 89 % of control

CC[N+](=Cc1ccccc1)C1CCCCC1
inactive: dose: 100.0 mg/kg/injection, schedule: Q01DX009 (ip), vehicle: saline 88 % of control | [16] 100 % of control | dose: 200.0 mg/kg/injection, schedule: Q01DX009 (ip), vehicle: saline 93 % of control | [17] 97 % of control | [18] 108 % of control

O=[N+]([O-])C(=C\c1ccccc1)/C(=C(/Br)[N+](=O)[O-])c1ccccc1
inactive: dose: 75.0 mg/kg/injection, schedule: Q01DX001 (ip), vehicle: saline 95 % of control | dose: 150.0 mg/kg/injection, schedule: Q01DX001 (ip), vehicle: saline 92 % of control

NC(=O)c1cc(O)c(O)c(O)c1
inactive: [7] 102 % of control | [8] 102 % of control | [9] 102 % of control
